{
  "source": "paper PMC8310277",
  "about": "(Viruses, 2021)",
  "key": {"[1]": {"test_system": "pseudotyped virus expressing SARS-CoV-2 S protein from the P.1 variant", "assay_type": "cell-based"}, "[2]": {"test_system": "pseudotyped virus expressing SARS-CoV-2 S protein from the B.1.1.7 variant", "assay_type": "cell-based"}},
  "note": "Where a SMILES comes first, the peptide text is derived from it. Bridges are numbered along the chain shown (N, C = ends).",
  "data": [
    {"smiles": "CC[C@H](C)[C@@H]1NC(=O)[C@H](CCC(=O)O)NC(=O)[C@@H]2CSSC[C@@H]3NC(=O)[C@H](Cc4ccc(O)cc4)NC(=O)[C@@H](NC(=O)[C@@H](NC(=O)[C@H](C)N)[C@@H](C)O)CSSC[C@@H](C(=O)N[C@@H](CCCNC(=N)N)C(=O)O)NC(=O)[C@H](CSSC[C@H](NC(=O)[C@H](CCCNC(=N)N)NC(=O)CNC(=O)[C@H]([C@@H](C)O)NC(=O)[C@H](CCCNC(=N)N)NC3=O)C(=O)N[C@@H](C)C(=O)N[C@@H]([C@@H](C)O)C(=O)N[C@@H](CCCNC(=N)N)C(=O)N[C@@H](CCC(=O)O)C(=O)N[C@@H](CO)C(=O)N[C@@H](CC(C)C)C(=O)N[C@@H](CO)C(=O)NCC(=O)N[C@@H](C(C)C)C(=O)N2)NC(=O)[C@H](CC(C)C)NC(=O)[C@H](CCCNC(=N)N)NC(=O)[C@H](Cc2ccc(O)cc2)NC(=O)[C@H](CC(C)C)NC(=O)[C@H](CCCNC(=N)N)NC(=O)CNC(=O)[C@H](CO)NC1=O", "note": "[HD5] (H-ATCYCRTGRCATRESLSGVCEISGRLYRLCCR-OH; disulfide 3-31, 5-20, 10-30 (inferred); N-terminus and C-terminus assumed)", "values": [
      {"measurement": "effect on P.1 variant (in words)", "setting": "[1]", "value": "suppressed the P.1 variant in a dose-dependent manner"},
      {"measurement": "suppression of P1 infection", "setting": "[1]; 50 μg/mL", "value": 72, "unit": "%"},
      {"measurement": "effect on B.1.1.7 variant (in words)", "setting": "[2]", "value": "moderate antiviral activity"},
      {"measurement": "inhibition of B.1.1.7 infection", "setting": "[2]; 50 μg/mL", "value": 32, "unit": "%"}
    ]}
  ]
}
